According to US11014953B2, “Trigger-activatable metabolic sugar precursors for cancer-selective labeling and targeting” (priority 2015, dated 2021):
Peptide text beside a SMILES is read from it. * marks the point of attachment. Cbz = O=C(OCc1ccccc1)*

Tests used:
[1] = tested on: LS174T colon cancer cells; experiment: Metabolic labeling of LS174T cells with azido-sugars, azides detected by DBCO-Cy5 (confocal imaging, flow cytometry); type: cell-based; conditions: for Labeling efficiency of E-S on co-incubation with inhibitor: LS174T cells co-incubated with E-S and inhibitor
Description: General procedures for confocal imaging of azido-sugar labeled cells. Cells were seeded onto coverslips in a 6-well plate at a cell density of 40 k/well. Ac4ManAz or Ac3ManAz derivatives were added with a final concentration of 50 μM and the cells were incubated at 37° C. for 72 h. The medium was removed and washed with PBS for three times. DBCO-Cy5 (50 μM) in Opti-MEM was then added and the cells were incubated for another 1 h. Then the medium was removed and the cells were washed with PBS for three times. 4% paraformaldehyde (PFA) solution was added to fix the cells for 10 min, followed by staining of cell nucleus with DAPI (2 μg/mL) for 10 min. The coverslips were mounted on microscope slides with the addition of ProLong Gold antifade reagent, and the prepared sample was stored in dark for imaging.
General procedures for flow cytometry analysis of azido-sugar labeled cells. Cells were seeded onto coverslips in a 6-well plate at a cell density of 40 k/well. Ac4ManAz or Ac3ManAz derivatives were added and incubated with cells for 72 h. After removal of medium and multiple washing steps, DBCO-Cy5 in opti-MEM was added and incubated with cells at 37° C. for 1 h. The opti-MEM was then removed and cells were washed with PBS for three times. Cells were lifted by incubating with trypsin solution (1 mL) at 37° C. for 3 min and transferred to test tubes with addition of 4% PFA solution (0.5 mL). Twenty thousand cells per sample were analyzed by flow cytometry and data analysis was performed on the FCS Express software.
Ac3ManAzNB mediated controlled cell labeling. LS174T cells were seeded onto coverslips in a 6-well plate at a cell density of 40 k/well. Ac3ManAzNB with a final concentration of 50 μM was added. […] Cells without UV irradiation were continuously incubated for 72 h. Cell samples for confocal imaging and flow cytometry were then prepared following the above-mentioned procedures.
Ac3ManAzHQ mediated controlled cell labeling. LS174T colon cancer cells or Caco-2 colon cancer cells or human fibroblast IMR90 cells were seeded onto coverslips in a 6-well plate at a cell density of 40 k/well and allowed to attach for overnight. Ac3ManAzHQ with a final concentration of 50 μM was added, followed by the addition of curcumin with a final concentration of 50 μM. Cells treated with PBS or Ac3ManAzHQ only were used as control. After 72-h incubation, cell samples for confocal imaging and flow cytometry were prepared following the above-mentioned procedures.
(§1) E-S mediated controlled cell labeling in vitro. LS174T colon cancer cells or human fibroblast IMR90 cells were seeded onto coverslips in a 6-well plate at a cell density of 40 k/well. E-S with a final concentration of 50 μM was added, followed by the addition of either TSA (1 μM) or Z-FY-CHO (50 μM). Cells treated with PBS or E-S only were used as the control. After 72-h incubation, the medium was removed and cell samples for confocal imaging and GE-Analyzer measurements were prepared similarly to above-mentioned procedures.

[2] = tested on: LS174T cells; experiment: Western blot analysis of LS174T cells treated with azido-sugars; type: cell-based
Description: Western blot analysis of cells treated with azido-sugars. LS174T cells were seeded onto cell culture flasks (25 cm^2 growth area) at a density of 1×10^6 cells per plate in 5 mL of media. Different azido-sugars were added and incubated with cells for 72 h. The cells were washed with PBS twice and harvested from the flasks using a cell scraper. Cells were pelleted by centrifugation at 1000 rpm for 5 min and re-suspended in 200 μL of lysis buffer (1% SDS, 100 mM Tris.HCl, pH 7.4) containing 1 tablet protease inhibitor (EDTA-free). The lysate was incubated at 4° C. for 30 min, followed by centrifugation at 3000 rcf for 10 min to remove insoluble debris. The total concentration of soluble protein in each sample was determined by bicinchoninic acid (BCA) assay and adjusted to the same concentration. Then 20 μL of the lysate was taken out and incubated with phosphine-PEG3-biotin (2 μL, 5 mM in PBS) at 37° C. for 6 h. Loading buffer was added to each sample and samples were loaded onto 10% SDS-PAGE gel after heating at 95° C. After running the gel for 100 min, proteins were transferred to Hybond P membrane, followed by blocking of the membrane with 5% bovine serum albumin (BSA) in TBST (50 mM Tris.HCl, 150 mM NaCl, 0.1% Tween 20, pH 7.4) for 2 h. The membrane was then incubated with streptavidin-HRP (diluted 1:2000 in TBST) overnight at 4° C., rinsed with TBST for three times and developed by ECL Western Blotting Substrate. For fluorescent visualization of protein bands, 20 μL of cell lysate was directly incubated with DBCO-Cy3 solution for 3 h. After the gel running and membrane transfer, protein bands were visualized using an Image Quant LAS 4010 system with a Cy3/Cy3 (excitation/emission) channel.

[3] = tested on: subcutaneous LS174T tumors; experiment: In vivo tumor labeling after intratumoral injection of azido-sugars, DBCO-Cy5 i.v.; design: species or system athymic nude mice; conditions: for In vivo Cy5 fluorescence intensity of pretreated left tumors vs control right tumors: 24 h p.i. of i.v. DBCO-Cy5; for Ex vivo difference in Cy5 FI between treated tumors and control tumors: ex vivo imaging of tumors; for Western blot of tumors (azido-modified glycoproteins): intratumoral once daily for three days, tumors harvested 24 h p.i.; for Cy5 fluorescence of tumor sections (confocal imaging): tumor sections after ex vivo imaging
Description: In vivo tumor labeling of Ac4ManAz, Ac3ManAzEt, and Ac3ManAzNB. LS174T tumor models were established on 6 week-old athymic nude mice by subcutaneous injection of LS174T colon cancer cells (1.5 million) in HBSS/matrigel (1/1, v/v) to both flanks. When the tumors grew to 5-6 mm, Ac4ManAz or Ac3ManAzEt or Ac3ManAzNB (25 mM, 20 μL) was injected into the left tumors once daily for three days while the same amount of PBS was injected to the right tumors as control (N=3 per group). At 24 h post the last injection, DBCO-Cy5 (5 mg/kg) was i.v. injected and its biodistribution was monitored via in vivo fluorescence imaging. Prior to imaging, nude mice were placed on the sample stage equipped with anesthesia input and output ports, and imaged by the Maestro In-Vivo Fluorescence Imaging System. The excitation filter of 575-605 nm was used. The tunable emission filter was automatically stepped in 10-nm increments from 630 to 850 nm with an exposure time of 50 ms for images taken at each wavelength. Collected images were analyzed by the Maestro software, which uses spectral unmixing algorithms to subtract autofluorescence from Cy5 signals. Tumors and major organs were harvested from mice at 24 h post injection of DBCO-Cy5. Ex vivo images were collected similarly using the Maestro system. Fluorescence intensity at selected ROIs was quantified using Maestro imaging software. All values were presented as means±standard deviation (n=3).
Western blot analysis of tissues. Tumors and organs harvested from azido-sugar treated mice were transferred into glass tubes containing 2 mL of lysis buffer (1% SDS, 100 mM Tris HCl, pH 7.4), homogenized, and incubated at 4° C. for 30 min. The lysates were then centrifuged at 3000 rcf for 10 min to remove the insoluble debris. Total soluble protein concentrations were determined by BCA assay and adjusted to 5 mg/mL for each group. The rest of procedures were the same as the above-mentioned western blot analysis of cells.
Confocal imaging of tumor tissue sections. After ex vivo imaging, tumors were directly frozen in O.C.T. compound and sectioned on a cryostat (Leica CM3050S) with a thickness of 6-8 μm. DAPI in PBS (2 μg/mL) was added onto the tissue-attaching microscope slides to stain cell nucleus. After 10 min, DAPI solution was removed and tissues were washed with PBS for three times. Coverslips were mounted on the microscope slides with the addition of ProLong Gold antifade reagent, and the prepared sample was stored in dark for confocal imaging.

[4] = tested on: LS174T cells; experiment: Uptake mechanism of DBCO-Cy5 in E-S pretreated LS174T cells; type: cell-based
Description: Uptake mechanism of DBCO-Cy5 or D-D in vitro. LS174T cells were seeded onto a tissue culture dish with cover glass bottom, and incubated with E-S (50 μM) for three days. After multiple washing with PBS, Lysotracker green in fresh medium was added and incubated for 1 h. Then DBCO-Cy5 was added and cells were further incubated for 1 h. Hoechst 33342 (10 μg/mL) and CellMask orange plasma membrane stain (1 μg/mL) were added to stain cell nucleus and cell membrane, respectively for 10 min. After removing the medium and washing with PBS, cells were further incubated at 37° C. At different time points (1 h, 3 h, 6 h, 12 h, and 24 h), cells were imaged under a fluorescence microscope to monitor the uptake of DBCO-Cy5. Cells without E-S pretreatment were used as control. For live cell imaging of D-D treated cells, CellMask deep red plasma membrane stain was used to stain cell membrane and lysosomes were not stained to avoid the interference over fluorescence signals of D-D.

[5] = tested on: cellular HDAC/CTSL activity; experiment: Inhibitory effect of TSA and Z-FY-CHO on cellular HDAC/CTSL activity (Naph-Lys reporter); type: cell-based
Description: Detection of cellular HDAC/CTSL activity. Cells were seeded in a 24-well plate at a cell density of 8 k/well, and were allowed to attach for overnight. Naph-Lys (50 μM) in OptiMEM was added and incubated with cells for different time (30 min, 1 h, 2 h, and 4 h). After removal of the OptiMEM and washing with PBS twice, cells were fixed with 4% PFA for 10 min and stained with DAPI (2 ng/mL) for 10 min. Average fluorescence intensity of cells were measured on a GE-Analyzer using DAPI and FITC channels. The DAPI channel was used for determining cell number per well. The FITC channel was used to determine the total fluorescence intensity of released Naph-NH2 per well. Data were presented with the average fluorescence intensity per cell.
Inhibitory effect of TSA and Z-FY-CHO on cellular HDAC/CTSL activity. TSA and Z-FY-CHO are known to be the inhibitor of HDAC and CTSL, respectively. To study their inhibitory effect, cells were seeded in a 24-well plate at a cell density of 8 k/well, and were allowed to attach for overnight. Cells were then divided into 4 groups: group 1 cells were added Naph-Lys (50 μM); group 2 cells were added Naph-Lys (50 μM)+TSA (1 μM); group 3 cells were added Naph-Lys (50 μM)+Z-FY-CHO (20 μM); group 4 cells were added PBS as negative control. […] Average fluorescence intensity of cells were measured on a GE-Analyzer using DAPI and FITC channels.

[6] = tested on: MDA-MB-231 breast cancer cells; experiment: E-S mediated in vitro labeling of MDA-MB-231 cells; type: cell-based
Description: as §1, with “in vitro” for “controlled cell”, “of MDA-MB-231 cells. MDA-MB-231 breast” for “in vitro. LS174T colon”, “cancer” for “cancer cells or human fibroblast IMR90”, “as” for “as the”, “IN cell Analyzer” for “GE-Analyzer”, “following the” for “similarly to”

Structure (SMILES)	In vivo Cy5 fluorescence intensity of pretreated left tumors vs control right tumors [3]	Ex vivo difference in Cy5 FI between treated tumors and control tumors [3]	Western blot of tumors (azido-modified glycoproteins) [3]	Cy5 fluorescence of tumor sections (confocal imaging) [3]	Labeling efficiency of E-S on co-incubation with inhibitor [1]	Turn-on fluorescence intensity of Naph-Lys in the presence of the inhibitor [5]	Labeling efficiency of E-S in the presence of inhibitor [6]	other results
CCOC1O[C@H](COC(C)=O)[C@@H](OC(C)=O)[C@H](OC(C)=O)[C@@H]1NC(=O)CN=[N+]=[N-] (stereo partly drawn) [Ac3ManAzEt]	negligible Cy5 retention enhancement	no significant difference	the same endogenous protein bands as PBS group	negligible Cy5 fluorescence				Cy5 fluorescence on the cell surface (CLSM) ([1]; LS174T cells, 50 μM azido-sugar three days (72 h), then DBCO-Cy5 1 h): negligible Cy5 fluorescence on the cell surface; Western blot of azido-glycoproteins (biotinylated with phosphine-PEG3-biotin) ([2]; 72 h): only two endogenous biotinylated proteins
CC(=O)OC[C@H]1OC(OCc2ccccc2[N+](=O)[O-])[C@@H](NC(=O)CN=[N+]=[N-])[C@@H](OC(C)=O)[C@@H]1OC(C)=O (stereo partly drawn) [Ac3ManAzNB]	negligible Cy5 retention enhancement	no significant difference	the same endogenous protein bands as PBS group	negligible Cy5 fluorescence				Cy5 fluorescence on the cell surface (CLSM) ([1]; LS174T cells, three days, with UV irradiation (10 min, 10 mW/cm^2)): strong Cy5 fluorescence; Cy5 fluorescence on the cell surface (CLSM) ([1]; LS174T cells, three days, without UV irradiation): negligible Cy5 fluorescence on cell surface; Cy5 fluorescence by flow cytometry ([1]; LS174T cells, with UV irradiation compared with Ac3ManAzNB only): significantly enhanced Cy5 fluorescence; Western blot of azido-glycoproteins ([2]; with UV): a series of protein bands; Western blot of azido-glycoproteins ([2]; without UV): the same two endogenous biotinylated protein bands as PBS group
CC1(C)C(/C=C/C=C/C=C2/N(CCCCCC(=O)NCCC(=O)N3Cc4ccccc4C#Cc4ccccc43)c3ccc(S(=O)(=O)O)cc3C2(C)C)=[N+](CCCS(=O)(=O)[O-])c2ccc(S(=O)(=O)O)cc21 [DBCO-Cy5]								Further incubation time at which DBCO-Cy5 completely disappeared from the cell membrane ([4]; E-S pretreated LS174T cells): 12 h; Cy5 signal in control cells without E-S pretreatment (passive uptake) ([4]; LS174T, DBCO-Cy5 1 h): Negligible Cy5 signal
CC(/C=C/C(=O)NO)=C\[C@@H](C)C(=O)c1ccc(N(C)C)cc1 [TSA, Trichostatin A]					greatly reduced	greatly decreased	significantly decreased the labeling efficiency	
O=C[C@H](Cc1ccc(O)cc1)NC(=O)[C@H](Cc1ccccc1)NC(=O)OCc1ccccc1 [Z-FY-CHO] (Cbz-Phe-Tyr-aldehyde)					greatly reduced	greatly decreased	significantly decreased the labeling efficiency	
COc1cc(/C=C/C(=O)CC(=O)/C=C/c2ccc(O)c(OC)c2)ccc1O [curcumin]								Labeling efficiency of Ac3ManAzHQ on co-incubation with NQO1 inhibitor ([1]; LS174T cells, compared with Ac3ManAzHQ only): significant reduction of labeling efficiency
